Source: patent US20210221848A1, “POLYMYXIN DERIVATIVES AND THEIR USE IN COMBINATION THERAPY TOGETHER WITH DIFFERENT ANTIBIOTICS” (priority 2014, published 2021)
Read-outs that look alike come from different tables or passages of the source.

How the values were obtained:
[1] = tested on: P. aeruginosa strains with elevated MICs to Polymyxin B; assay: MIC against strains with elevated MICs to Polymyxin B; assay type: cell-based, Pseudomonas aeruginosa; details: Table 6D; for MIC P. aeruginosa 065: strain 065, elevated MIC to Polymyxin B; for MIC P. aeruginosa 066: strain 066, elevated MIC to Polymyxin B; for MIC P. aeruginosa 067: strain 067, elevated MIC to Polymyxin B
Method in brief: (§1)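 Values are modal MICs where compounds were tested repeatedly, otherwise the lower of duplicates agreeing within 2-fold, with greater variation rejected. Inoculum: isolated colonies from 18-24 h Mueller-Hinton agar, suspended directly to 0.5 McFarland.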

[2] = tested on: K. pneumoniae
[3] = tested on: E. coli strains with elevated MICs to Polymyxin B; assay: MIC against strains with elevated MICs to Polymyxin B; assay type: cell-based, Escherichia coli; details: Table 6D; for MIC E. coli 058: strain 058, elevated MIC to Polymyxin B; for MIC E. coli 059: strain 059, elevated MIC to Polymyxin B; for MIC E. coli 060: strain 060, elevated MIC to Polymyxin B; for MIC E. coli 061: strain 061, elevated MIC to Polymyxin B
Method in brief: as §1

[4] = tested on: P. aeruginosa
[5] = tested on: K. pneumoniae strains with elevated MICs to Polymyxin B; assay: MIC against strains with elevated MICs to Polymyxin B; assay type: cell-based, Klebsiella pneumoniae; details: Table 6D; for MIC K. pneumoniae 062: strain 062, elevated MIC to Polymyxin B; for MIC K. pneumoniae 063: strain 063, elevated MIC to Polymyxin B; for MIC K. pneumoniae 064: strain 064, elevated MIC to Polymyxin B; for MIC K. pneumoniae 655: strain 655, elevated MIC to Polymyxin B
Method in brief: as §1

[6] = tested on: A. baumannii
[7] = tested on: A. baumanii strains with elevated MICs to Polymyxin B; assay: MIC against strains with elevated MICs to Polymyxin B; assay type: cell-based, Acinetobacter baumannii; details: Table 6D; for MIC A. baumannii 053: strain 053, elevated MIC to Polymyxin B; for MIC A. baumannii 056: strain 056, elevated MIC to Polymyxin B; for MIC A. baumannii 068: strain 068, elevated MIC to Polymyxin B; for MIC A. baumannii 070: strain 070, elevated MIC to Polymyxin B
Method in brief: as §1

[8] = tested on: E. coli
[9] = absence of a second agent, Table 6B

Substance	MIC P. aeruginosa 065 [1] [micrograms/mL]	MIC P. aeruginosa 066 [1] [micrograms/mL]	MIC P. aeruginosa 067 [1] [micrograms/mL]	MIC, K. pneumoniae ATCC 4352 ([2]; sole activity, Table 6C) [micrograms/mL]	MIC E. coli 058 [3] [micrograms/mL]	MIC E. coli 059 [3] [micrograms/mL]	MIC E. coli 060 [3] [micrograms/mL]	MIC E. coli 061 [3] [micrograms/mL]	MIC, P. aeruginosa ATCC 27853 ([4]; sole activity, Table 6C) [micrograms/mL]	MIC, P. aeruginosa CCUG 59347 ([4]; sole activity, Table 6C) [micrograms/mL]	MIC K. pneumoniae 062 [5] [micrograms/mL]	MIC K. pneumoniae 063 [5] [micrograms/mL]	MIC K. pneumoniae 064 [5] [micrograms/mL]	MIC, A. baumannii ATCC BAA-747 ([6]; sole activity, Table 6C) [micrograms/mL]	MIC, A. baumannii NCTC 13424 ([6]; sole activity, Table 6C) [micrograms/mL]	MIC A. baumannii 053 [7] [micrograms/mL]	MIC A. baumannii 056 [7] [micrograms/mL]	MIC A. baumannii 068 [7] [micrograms/mL]	MIC K. pneumoniae 655 [5] [micrograms/mL]	MIC A. baumannii 070 [7] [micrograms/mL]	other results
cis-5- (benzylcarbamoyl) piperidine-3- carbonyl Polymyxin B nonapeptide [Example D66]	16	32	>256	0.125	8	16	8	32	0.5	0.5	128	64	32	0.25	0.25	>256	128	32	–	–	MIC, K. pneumoniae ATCC BAA-2146 ([2]; sole activity, Table 6C): 0.06 micrograms/mL; MIC, E. coli ATCC 25922 ([8]; sole activity, Table 6C): 0.125 micrograms/mL; MIC, E. coli NCTC 13441 ([8]; sole activity, Table 6C): 0.125 micrograms/mL
cis-5-cyclohexyl- piperidine-3- carbonyl L-Thr-L- Dap-polymyxin B heptapeptide [Example D85]	4	16	>128	0.06	2	16	4	16	0.125	0.25	–	64	16	0.015	0.06	64	4	8	32	8	MIC, E. coli ATCC 25922 ([8]; sole activity, Table 6C): 0.06 micrograms/mL; MIC, E. coli NCTC 13441 ([8]; sole activity, Table 6C): 0.125 micrograms/mL
(cis-5-octylpiperidine)- 3-carbonyl polymyxin B nonapeptide [Example D21]	–	2	4	–	1	0.5	1	2	–	–	2	32	1	–	–	8	4	1	32	2	MIC, K. pneumoniae ATCC 4352 [2, 9]: 0.25 micrograms/mL; MIC, K. pneumoniae ATCC BAA-2146 [2, 9]: 1 micrograms/mL; MIC, P. aeruginosa ATCC 27853 [4, 9]: 0.5 micrograms/mL; MIC, P. aeruginosa CCUG 59347 [4, 9]: 0.5 micrograms/mL; MIC, A. baumannii ATCC BAA-747 [6, 9]: 0.5 micrograms/mL; MIC, A. baumannii NCTC 13424 [6, 9]: 2 micrograms/mL; MIC, E. coli ATCC 25922 [8, 9]: 0.5 micrograms/mL; MIC, E. coli NCTC 13441 [8, 9]: 0.5 micrograms/mL
(trans-5-(isobutyl- piperidine)-3- carbonyl L-Thr- D-Ser-polymyxin B heptapeptide [Example D82]	0.5	–	64	0.06	4	4	4	8	2	4	32	16	1	0.06	0.125	16	8	32	8	32	MIC, E. coli ATCC 25922 ([8]; sole activity, Table 6C): 0.125 micrograms/mL
3-aminomethyl- undecanoyl polymyxin B nonapeptide [Example D32]	–	4	32	–	–	1	2	8	–	–	8	32	2	–	–	32	8	4	32	8	MIC, K. pneumoniae ATCC 4352 [2, 9]: 1 micrograms/mL; MIC, P. aeruginosa ATCC 27853 [4, 9]: 0.5 micrograms/mL; MIC, P. aeruginosa CCUG 59347 [4, 9]: 1 micrograms/mL; MIC, A. baumannii ATCC BAA-747 [6, 9]: 2 micrograms/mL; MIC, A. baumannii NCTC 13424 [6, 9]: 1 micrograms/mL; MIC, E. coli ATCC 25922 [8, 9]: 1 micrograms/mL; MIC, E. coli NCTC 13441 [8, 9]: 1 micrograms/mL
3-aminomethyl- undecanoyl polymyxin B nonapeptide [Example D33]	–	4	32	–	–	2	2	8	–	–	2	16	2	–	–	32	16	4	32	4	MIC, K. pneumoniae ATCC 4352 [2, 9]: 2 micrograms/mL; MIC, P. aeruginosa ATCC 27853 [4, 9]: 0.5 micrograms/mL; MIC, P. aeruginosa CCUG 59347 [4, 9]: 1 micrograms/mL; MIC, A. baumannii ATCC BAA-747 [6, 9]: 1 micrograms/mL; MIC, A. baumannii NCTC 13424 [6, 9]: 2 micrograms/mL; MIC, E. coli ATCC 25922 [8, 9]: 1 micrograms/mL; MIC, E. coli NCTC 13441 [8, 9]: 2 micrograms/mL
(S)-1-isobutyl piperazine-2- carbonyl-L-Thr- L-Dap-polymyxin B heptapeptide [Example D69]	16	32	>256	0.125	8	16	8	32	0.5	0.5	–	128	32	0.25	0.5	>256	256	32	–	–	MIC, E. coli ATCC 25922 ([8]; sole activity, Table 6C): 0.25 micrograms/mL; MIC, E. coli NCTC 13441 ([8]; sole activity, Table 6C): 0.125 micrograms/mL
